smiles,measurement,setting,value
COC(=O)c1ccccc1S(N)(=O)=O,solubility (mole fraction),"in 2-butanone, 273.15 K",0.028
same,solubility (mole fraction),"in 2-butanone, 278.15 K",0.0329
same,solubility (mole fraction),"in 2-butanone, 283.15 K",0.0385
same,solubility (mole fraction),"in 2-butanone, 287.95 K",0.0446
same,solubility (mole fraction),"in 2-butanone, 293.85 K",0.0529
same,solubility (mole fraction),"in 2-butanone, 298.75 K",0.0609
same,solubility (mole fraction),"in 2-butanone, 303.45 K",0.0691
same,solubility (mole fraction),"in 2-butanone, 308.15 K",0.0784
same,solubility (mole fraction),"in 2-butanone, 313.85 K",0.0907
same,solubility (mole fraction),"in 2-butanone, 318.65 K",0.102
same,solubility (mole fraction),"in 2-butanone, 324.15 K",0.117
same,solubility (mole fraction),"in 2-pentanone, 273.15 K",0.0185
same,solubility (mole fraction),"in 2-pentanone, 278.15 K",0.0218
same,solubility (mole fraction),"in 2-pentanone, 283.15 K",0.0256
same,solubility (mole fraction),"in 2-pentanone, 287.95 K",0.0298
same,solubility (mole fraction),"in 2-pentanone, 293.85 K",0.0355
same,solubility (mole fraction),"in 2-pentanone, 298.75 K",0.0409
same,solubility (mole fraction),"in 2-pentanone, 303.45 K",0.0466
same,solubility (mole fraction),"in 2-pentanone, 308.15 K",0.053
same,solubility (mole fraction),"in 2-pentanone, 313.85 K",0.0617
same,solubility (mole fraction),"in 2-pentanone, 318.65 K",0.0695
same,solubility (mole fraction),"in 2-pentanone, 324.15 K",0.0797
same,solubility (mole fraction),"in acetone, 273.15 K",0.0414
same,solubility (mole fraction),"in acetone, 278.15 K",0.0483
same,solubility (mole fraction),"in acetone, 283.15 K",0.0561
same,solubility (mole fraction),"in acetone, 287.95 K",0.0643
same,solubility (mole fraction),"in acetone, 293.85 K",0.0757
same,solubility (mole fraction),"in acetone, 298.75 K",0.0863
same,solubility (mole fraction),"in acetone, 303.45 K",0.0976
same,solubility (mole fraction),"in acetone, 308.15 K",0.11
same,solubility (mole fraction),"in acetone, 313.85 K",0.126
same,solubility (mole fraction),"in acetone, 318.65 K",0.141
same,solubility (mole fraction),"in acetone, 324.15 K",0.16
same,solubility (mole fraction),"in acetonitrile, 273.15 K",0.0188
same,solubility (mole fraction),"in acetonitrile, 278.15 K",0.0231
same,solubility (mole fraction),"in acetonitrile, 283.15 K",0.0282
same,solubility (mole fraction),"in acetonitrile, 287.95 K",0.0339
same,solubility (mole fraction),"in acetonitrile, 293.85 K",0.0423
same,solubility (mole fraction),"in acetonitrile, 298.75 K",0.0504
same,solubility (mole fraction),"in acetonitrile, 303.45 K",0.0594
same,solubility (mole fraction),"in acetonitrile, 308.15 K",0.0695
same,solubility (mole fraction),"in acetonitrile, 313.85 K",0.0835
same,solubility (mole fraction),"in acetonitrile, 318.65 K",0.0975
same,solubility (mole fraction),"in acetonitrile, 324.15 K",0.115
same,solubility (mole fraction),"in cyclopentanone, 273.15 K",0.0537
same,solubility (mole fraction),"in cyclopentanone, 278.15 K",0.0616
same,solubility (mole fraction),"in cyclopentanone, 283.15 K",0.0704
same,solubility (mole fraction),"in cyclopentanone, 287.95 K",0.0795
same,solubility (mole fraction),"in cyclopentanone, 293.85 K",0.092
same,solubility (mole fraction),"in cyclopentanone, 298.75 K",0.103
same,solubility (mole fraction),"in cyclopentanone, 303.45 K",0.115
same,solubility (mole fraction),"in cyclopentanone, 308.15 K",0.128
same,solubility (mole fraction),"in cyclopentanone, 313.85 K",0.145
same,solubility (mole fraction),"in cyclopentanone, 318.65 K",0.16
same,solubility (mole fraction),"in cyclopentanone, 324.15 K",0.179
same,solubility (mole fraction),"in ethanol, 272.15 K",0.00172
same,solubility (mole fraction),"in ethanol, 278.75 K",0.00252
same,solubility (mole fraction),"in ethanol, 283.15 K",0.00322
same,solubility (mole fraction),"in ethanol, 288.15 K",0.0042
same,solubility (mole fraction),"in ethanol, 293.05 K",0.0054
same,solubility (mole fraction),"in ethanol, 298.05 K",0.00692
same,solubility (mole fraction),"in ethanol, 303.15 K",0.00887
same,solubility (mole fraction),"in ethanol, 308.05 K",0.0112
same,solubility (mole fraction),"in ethanol, 312.15 K",0.0134
same,solubility (mole fraction),"in ethanol, 318.15 K",0.0175
same,solubility (mole fraction),"in ethanol, 324.15 K",0.0226
same,solubility (mole fraction),"in ethyl acetate, 273.15 K",0.0112
same,solubility (mole fraction),"in ethyl acetate, 278.15 K",0.0135
same,solubility (mole fraction),"in ethyl acetate, 283.15 K",0.0162
same,solubility (mole fraction),"in ethyl acetate, 287.95 K",0.0192
same,solubility (mole fraction),"in ethyl acetate, 293.85 K",0.0236
same,solubility (mole fraction),"in ethyl acetate, 298.75 K",0.0278
same,solubility (mole fraction),"in ethyl acetate, 303.45 K",0.0323
same,solubility (mole fraction),"in ethyl acetate, 308.15 K",0.0373
same,solubility (mole fraction),"in ethyl acetate, 313.85 K",0.0444
same,solubility (mole fraction),"in ethyl acetate, 318.65 K",0.0509
same,solubility (mole fraction),"in ethyl acetate, 324.15 K",0.0596
same,solubility (mole fraction),"in ethyl formate, 273.15 K",0.00969
same,solubility (mole fraction),"in ethyl formate, 278.15 K",0.0119
same,solubility (mole fraction),"in ethyl formate, 283.15 K",0.0145
same,solubility (mole fraction),"in ethyl formate, 287.95 K",0.0174
same,solubility (mole fraction),"in ethyl formate, 293.85 K",0.0215
same,solubility (mole fraction),"in ethyl formate, 298.75 K",0.0256
same,solubility (mole fraction),"in ethyl formate, 303.45 K",0.03
same,solubility (mole fraction),"in ethyl formate, 308.15 K",0.0351
same,solubility (mole fraction),"in ethyl formate, 313.85 K",0.0421
same,solubility (mole fraction),"in ethyl formate, 318.65 K",0.049
same,solubility (mole fraction),"in ethyl formate, 324.15 K",0.0578
same,solubility (mole fraction),"in isobutanol, 272.15 K",0.000673
same,solubility (mole fraction),"in isobutanol, 278.75 K",0.001
same,solubility (mole fraction),"in isobutanol, 283.15 K",0.00129
same,solubility (mole fraction),"in isobutanol, 288.15 K",0.00171
same,solubility (mole fraction),"in isobutanol, 293.05 K",0.00224
same,solubility (mole fraction),"in isobutanol, 298.05 K",0.00291
same,solubility (mole fraction),"in isobutanol, 303.15 K",0.00378
same,solubility (mole fraction),"in isobutanol, 308.05 K",0.00479
same,solubility (mole fraction),"in isobutanol, 312.15 K",0.00586
same,solubility (mole fraction),"in isobutanol, 318.15 K",0.00775
same,solubility (mole fraction),"in isobutanol, 324.15 K",0.0101
same,solubility (mole fraction),"in isopentanol, 272.15 K",0.000712
same,solubility (mole fraction),"in isopentanol, 278.75 K",0.00105
same,solubility (mole fraction),"in isopentanol, 283.15 K",0.00135
same,solubility (mole fraction),"in isopentanol, 288.15 K",0.00177
same,solubility (mole fraction),"in isopentanol, 293.05 K",0.00229
same,solubility (mole fraction),"in isopentanol, 298.05 K",0.00296
same,solubility (mole fraction),"in isopentanol, 303.15 K",0.00381
same,solubility (mole fraction),"in isopentanol, 308.05 K",0.00483
same,solubility (mole fraction),"in isopentanol, 312.15 K",0.00586
same,solubility (mole fraction),"in isopentanol, 318.15 K",0.00764
same,solubility (mole fraction),"in isopentanol, 324.15 K",0.00989
same,solubility (mole fraction),"in isopropanol, 272.15 K",0.000871
same,solubility (mole fraction),"in isopropanol, 278.75 K",0.00134
same,solubility (mole fraction),"in isopropanol, 283.15 K",0.00176
same,solubility (mole fraction),"in isopropanol, 288.15 K",0.00239
same,solubility (mole fraction),"in isopropanol, 293.05 K",0.00317
same,solubility (mole fraction),"in isopropanol, 298.05 K",0.00422
same,solubility (mole fraction),"in isopropanol, 303.15 K",0.00557
same,solubility (mole fraction),"in isopropanol, 308.05 K",0.00726
same,solubility (mole fraction),"in isopropanol, 312.15 K",0.00894
same,solubility (mole fraction),"in isopropanol, 318.15 K",0.0121
same,solubility (mole fraction),"in isopropanol, 324.15 K",0.0161
same,solubility (mole fraction),"in methanol, 272.15 K",0.00311
same,solubility (mole fraction),"in methanol, 278.75 K",0.00462
same,solubility (mole fraction),"in methanol, 283.15 K",0.00595
same,solubility (mole fraction),"in methanol, 288.15 K",0.00788
same,solubility (mole fraction),"in methanol, 293.05 K",0.0102
same,solubility (mole fraction),"in methanol, 298.05 K",0.0133
same,solubility (mole fraction),"in methanol, 303.15 K",0.0171
same,solubility (mole fraction),"in methanol, 308.05 K",0.0217
same,solubility (mole fraction),"in methanol, 312.15 K",0.0264
same,solubility (mole fraction),"in methanol, 318.15 K",0.0348
same,solubility (mole fraction),"in methanol, 324.15 K",0.0454
same,solubility (mole fraction),"in methyl acetate, 273.15 K",0.0162
same,solubility (mole fraction),"in methyl acetate, 278.15 K",0.0196
same,solubility (mole fraction),"in methyl acetate, 283.15 K",0.0235
same,solubility (mole fraction),"in methyl acetate, 287.95 K",0.0279
same,solubility (mole fraction),"in methyl acetate, 293.85 K",0.0341
same,solubility (mole fraction),"in methyl acetate, 298.75 K",0.04
same,solubility (mole fraction),"in methyl acetate, 303.45 K",0.0465
same,solubility (mole fraction),"in methyl acetate, 308.15 K",0.0537
same,solubility (mole fraction),"in methyl acetate, 313.85 K",0.0637
same,solubility (mole fraction),"in methyl acetate, 318.65 K",0.0731
same,solubility (mole fraction),"in methyl acetate, 324.15 K",0.0851
same,solubility (mole fraction),"in n-butanol, 272.15 K",0.00092
same,solubility (mole fraction),"in n-butanol, 278.75 K",0.00137
same,solubility (mole fraction),"in n-butanol, 283.15 K",0.00177
same,solubility (mole fraction),"in n-butanol, 288.15 K",0.00234
same,solubility (mole fraction),"in n-butanol, 293.05 K",0.00307
same,solubility (mole fraction),"in n-butanol, 298.05 K",0.004
same,solubility (mole fraction),"in n-butanol, 303.15 K",0.00518
same,solubility (mole fraction),"in n-butanol, 308.05 K",0.00659
same,solubility (mole fraction),"in n-butanol, 312.15 K",0.00801
same,solubility (mole fraction),"in n-butanol, 318.15 K",0.0106
same,solubility (mole fraction),"in n-butanol, 324.15 K",0.0139
same,solubility (mole fraction),"in n-pentanol, 272.15 K",0.000797
same,solubility (mole fraction),"in n-pentanol, 278.75 K",0.00118
same,solubility (mole fraction),"in n-pentanol, 283.15 K",0.0015
same,solubility (mole fraction),"in n-pentanol, 288.15 K",0.00197
same,solubility (mole fraction),"in n-pentanol, 293.05 K",0.00255
same,solubility (mole fraction),"in n-pentanol, 298.05 K",0.0033
same,solubility (mole fraction),"in n-pentanol, 303.15 K",0.00424
same,solubility (mole fraction),"in n-pentanol, 308.05 K",0.00534
same,solubility (mole fraction),"in n-pentanol, 312.15 K",0.0065
same,solubility (mole fraction),"in n-pentanol, 318.15 K",0.00849
same,solubility (mole fraction),"in n-pentanol, 324.15 K",0.011
same,solubility (mole fraction),"in n-propanol, 272.15 K",0.00106
same,solubility (mole fraction),"in n-propanol, 278.75 K",0.00159
same,solubility (mole fraction),"in n-propanol, 283.15 K",0.00206
same,solubility (mole fraction),"in n-propanol, 288.15 K",0.00274
same,solubility (mole fraction),"in n-propanol, 293.05 K",0.00357
same,solubility (mole fraction),"in n-propanol, 298.05 K",0.00469
same,solubility (mole fraction),"in n-propanol, 303.15 K",0.00609
same,solubility (mole fraction),"in n-propanol, 308.05 K",0.00778
same,solubility (mole fraction),"in n-propanol, 312.15 K",0.00946
same,solubility (mole fraction),"in n-propanol, 318.15 K",0.0125
same,solubility (mole fraction),"in n-propanol, 324.15 K",0.0164

# From BigSolDB 2.1
